{"source": "patent US20250296953A1", "about": "“3,4-THIAZOLO-STEROIDS AND METHODS OF MAKING AND USING THE SAME” (Arkansas State University - Jonesboro, priority 2018, published 2025)", "key": {"[1]": {"system": "SK-MEL-25", "assay": "Melanoma cytotoxicity assay (resazurin)", "assay_type": "cell-based", "conditions": "SK-MEL-25 melanoma cells, 24 hours with compound, resazurin; concentration not given", "summary_of_the_method": "(§1)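 Viability read by resazurin fluorescence (ex 544, em 590 nm) after 6 h, following 24 h compound exposure of cells plated 24 h earlier (~4000/well). Triplicate means, minus medium blank, divided by DMSO control; IC50 derived from sigmoidal dose-response curves.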"}, "[2]": {"system": "SK-MEL-28", "assay": "Melanoma cytotoxicity assay (resazurin)", "assay_type": "cell-based", "conditions": "SK-MEL-28 melanoma cells, 24 hours with compound, resazurin; concentration not given", "summary_of_the_method": "as §1"}, "[3]": {"system": "HCT-15 (Colon Cancer)", "assay": "NCI 60 one dose screen", "assay_type": "cell-based, human"}, "[4]": {"system": "SF-295", "assay": "NCI 60 one dose screen", "assay_type": "cell-based, human", "conditions": "one dose; CNS Cancer; SF-295"}, "[5]": {"system": "SF-539", "assay": "NCI 60 one dose screen", "assay_type": "cell-based, human", "conditions": "one dose; CNS Cancer; SF-539"}, "[6]": {"system": "60 different human tumor cell lines", "conditions": "for TGI: five dose"}, "[7]": {"system": "gliosarcoma (SF-539)", "assay": "NCI 60 five dose screen"}, "[8]": {"system": "SR", "assay": "NCI 60 five dose screen"}}, "note": "Where two headings read alike, the source gives them in different places."}
{"smiles": "C[C@]12CCc3sc(NCCc4ccccc4)nc3C1=CC[C@@H]1[C@@H]2CC[C@]2(C)C(=O)CC[C@@H]12", "note": "[IIa.2, (1S,2R,13R,14S,18S)-2,18-dimethyl-7-(2-phenylethylamino)-6-thia-8-azapentacyclo [11.7.0.02,10.05,9.014,18]icosa-5(9),7,10-trien-17-one]", "values": [{"measurement": "SK-MEL-25 (% inhibition)", "setting": "[1]", "result": 59, "unit": "%"}, {"measurement": "SK-MEL-28 (% inhibition)", "setting": "[2]", "result": 79, "unit": "%"}, {"measurement": "Growth Percent", "setting": "[3]", "result": 22.48, "unit": "%"}, {"measurement": "Growth Percent", "setting": "[4]", "result": 68.44, "unit": "%"}, {"measurement": "Growth Percent", "setting": "[5]", "result": 64.79, "unit": "%"}, {"measurement": "LC50", "setting": "[6]", "result": ">l.00E−4"}, {"measurement": "TGI", "setting": "[6]; 786-0 (Renal Cancer)", "result": "9.61E−6"}, {"measurement": "TGI", "setting": "[6]; A498 (Renal Cancer)", "result": ">1.00E−4"}, {"measurement": "TGI", "setting": "[6]; ACHN (Renal Cancer)", "result": "3.75E−6"}, {"measurement": "TGI", "setting": "[6]; BT-549 (Breast Cancer)", "result": ">1.00E−4"}, {"measurement": "TGI", "setting": "[6]; CAKI-1 (Renal Cancer)", "result": "1.11E−5"}, {"measurement": "TGI", "setting": "[6]; CCRF-CEM (Leukemia)", "result": "4.04E−5"}, {"measurement": "TGI", "setting": "[6]; COLO 205 (Colon Cancer)", "result": "8.77E−6"}, {"measurement": "TGI", "setting": "[6]; DU-145 (Prostate Cancer)", "result": ">1.00E−4"}, {"measurement": "TGI", "setting": "[6]; EKVX (Non-small Cell Lung Cancer)", "result": ">1.00E−4"}, {"measurement": "TGI", "setting": "[6]; HCC-2998 (Colon Cancer)", "result": ">1.00E−4"}, {"measurement": "TGI", "setting": "[6]; HCT-15 (Colon Cancer)", "result": "4.49E−6"}, {"measurement": "TGI", "setting": "[6]; HCT-116 (Colon Cancer)", "result": "1.23E−5"}, {"measurement": "TGI", "setting": "[6]; HL-60(TB) (Leukemia)", "result": "9.10E−6"}, {"measurement": "TGI", "setting": "[6]; HOP-62 (Non-small Cell Lung Cancer)", "result": ">1.00E−4"}, {"measurement": "TGI", "setting": "[6]; HOP-92 (Non-small Cell Lung Cancer)", "result": "9.10E−6"}, {"measurement": "TGI", "setting": "[6]; HS 578T (Breast Cancer)", "result": ">1.00E−4"}, {"measurement": "TGI", "setting": "[6]; HT29 (Colon Cancer)", "result": "8.11E−6"}, {"measurement": "TGI", "setting": "[6]; IGROV1 (Ovarian Cancer)", "result": "6.18E−6"}, {"measurement": "TGI", "setting": "[6]; K-562 (Leukemia)", "result": ">1.00E−4"}, {"measurement": "TGI", "setting": "[6]; KM12 (Colon Cancer)", "result": ">1.00E−4"}, {"measurement": "TGI", "setting": "[6]; LOX IMVI (Melanoma)", "result": "3.17E−6"}, {"measurement": "TGI", "setting": "[6]; M14 (Melanoma)", "result": ">1.00E−4"}, {"measurement": "TGI", "setting": "[6]; MALME-3M (Melanoma)", "result": "6.82E−6"}, {"measurement": "TGI", "setting": "[6]; MCF7 (Breast Cancer)", "result": ">1.00E−4"}, {"measurement": "TGI", "setting": "[6]; MDA-MB-231/ATCC (Breast Cancer)", "result": "2.14E−5"}, {"measurement": "TGI", "setting": "[6]; MDA-MB-435 (Melanoma)", "result": ">1.00E−4"}, {"measurement": "TGI", "setting": "[6]; MDA-MB-468 (Breast Cancer)", "result": "1.03E−5"}, {"measurement": "TGI", "setting": "[6]; MOLT-4 (Leukemia)", "result": ">1.00E−4"}, {"measurement": "TGI", "setting": "[6]; NCI-H23 (Non-small Cell Lung Cancer)", "result": ">1.00E−4"}, {"measurement": "TGI", "setting": "[6]; NCI-H226 (Non-small Cell Lung Cancer)", "result": "6.57E−6"}, {"measurement": "TGI", "setting": "[6]; NCI-H322M (Non-small Cell Lung Cancer)", "result": ">1.00E−4"}, {"measurement": "TGI", "setting": "[6]; NCI-H460 (Non-small Cell Lung Cancer)", "result": ">1.00E−4"}, {"measurement": "TGI", "setting": "[6]; NCI-H522 (Non-small Cell Lung Cancer)", "result": "3.64E−6"}, {"measurement": "TGI", "setting": "[6]; NCI/ADR-RES (Ovarian Cancer)", "result": "7.52E−6"}, {"measurement": "TGI", "setting": "[6]; OVCAR-3 (Ovarian Cancer)", "result": "4.83E−6"}, {"measurement": "TGI", "setting": "[6]; OVCAR-4 (Ovarian Cancer)", "result": ">1.00E−4"}, {"measurement": "TGI", "setting": "[6]; OVCAR-5 (Ovarian Cancer)", "result": "6.59E−5"}, {"measurement": "TGI", "setting": "[6]; OVCAR-8 (Ovarian Cancer)", "result": ">1.00E−4"}, {"measurement": "TGI", "setting": "[6]; PC-3 (Prostate Cancer)", "result": ">1.00E−4"}, {"measurement": "TGI", "setting": "[6]; RXF 393 (Renal Cancer)", "result": "4.49E−6"}, {"measurement": "TGI", "setting": "[6]; SF-268 (CNS Cancer)", "result": ">1.00E−4"}, {"measurement": "TGI", "setting": "[6]; SK-MEL-2 (Melanoma)", "result": ">1.00E−4"}, {"measurement": "TGI", "setting": "[6]; SK-MEL-5 (Melanoma)", "result": "5.27E−5"}, {"measurement": "TGI", "setting": "[6]; SK-MEL-28 (Melanoma)", "result": "1.89E−5"}, {"measurement": "TGI", "setting": "[6]; SK-OV-3 (Ovarian Cancer)", "result": ">1.00E−4"}, {"measurement": "TGI", "setting": "[6]; SN12C (Renal Cancer)", "result": ">1.00E−4"}, {"measurement": "TGI", "setting": "[6]; SNB-19 (CNS Cancer)", "result": ">1.00E−4"}, {"measurement": "TGI", "setting": "[6]; SW-620 (Colon Cancer)", "result": "5.28E−6"}, {"measurement": "TGI", "setting": "[6]; T-47D (Breast Cancer)", "result": "2.52E−5"}, {"measurement": "TGI", "setting": "[6]; TK-10 (Renal Cancer)", "result": ">1.00E−4"}, {"measurement": "TGI", "setting": "[6]; U251 (CNS Cancer)", "result": ">1.00E−4"}, {"measurement": "TGI", "setting": "[6]; UACC-62 (Melanoma)", "result": "1.06E−5"}, {"measurement": "TGI", "setting": "[6]; UACC-257 (Melanoma)", "result": "7.98E−5"}, {"measurement": "TGI", "setting": "[6]; UO-31 (Renal Cancer)", "result": "2.51E−5"}, {"measurement": "GI50", "setting": "[7]; Homo sapiens, SF-539", "result": 1.69, "unit": "µM"}, {"measurement": "CC50", "setting": "[7]; Homo sapiens, SF-539, read-out: LC50", "result": 7.75, "unit": "µM"}, {"measurement": "TGI", "setting": "[7]; SF-539 (CNS Cancer), five dose", "result": "3.62E−6"}, {"measurement": "GI50", "setting": "[8]; Homo sapiens, SR", "result": 3.07, "unit": "µM"}, {"measurement": "CC50", "setting": "[8]; Homo sapiens, SR, read-out: LC50", "result": "> 100", "unit": "µM"}, {"measurement": "TGI", "setting": "[8]; SR (Leukemia), five dose", "result": ">1.00E−4"}]}
